Each block holds one compound with its values, some of them ahead of it.
Assays:
Male NMRI mice = experiment: Ro-4-1284 antagonism in mice; type: in vivo; settings: Ro-4-1284 antagonism test in mice
Method: The test is a modification of a procedure described by Colpaert et al. (1975).^3 Male NMRI mice (22±3 g) were housed in macrolon observation cages (L×W×H: 11×12×17 cm; n=3 per cage). At the start of the experiments immediately before test compound administration, the initial body temperature of the mice was measured with a precision of 0.1° C. by inserting the thermo-sensitive probe (1.0 mm diameter) of an electric thermometer (Comark) to a constant depth of 3 cm into the esophagus until a stable reading was obtained. The right eye pupil diameter was measured with a graduated microscope and expressed in 1/24 mm units. Fifteen min after test compound administration, the mice were challenged with Ro-4-1284 (10 mg/kg, s.c.). Ro-4-1284 is a reserpine-like vesicular monoamine transport (VMAT-2) inhibitor, which rapidly depletes secretory vesicles.^3,4 Fifteen, 30 and 60 min after challenge, the mice were scored for palpebral opening (0, 1, 2, 3, 4, 5) and locomotor activity (−1, 0, 1, 2, 3). At the 60-min interval, immediately after the scoring of overt behavior, the right eye pupil diameter and the esophageal temperature were measured again. Abnormal phenomena such as intensive sniffing, chewing, rearing, hyperemia, piloerection, salivation, tremors, convulsions and death were noted (the latter phenomena were also noted when occurring before Ro-4-1284 administration). Criteria for drug-induced effects: reversal of ptosis: palpebral opening score >1 at 15, 30 or 60 min (2.7, 0.5 and 0% false positive controls, respectively; n>350); induction of prostration: score −1 for locomotion at 15, 30 or 60 min (never observed in controls); reversal of hypomotility: score >0 for locomotion at 15, 30 and 60 min (2.2, 0.8 and 0% false positive controls, respectively); reversal of miosis: pupil diameter >5 units at 60 min (0.8% false positives); potentiation of hypothermia: temperature decrease (over the 1-h time interval)>9.0° C. (1.4% false positives); reversal of hypothermia: temperature decrease <3.0° C. (1.8% false positives).
According to the standard procedure, R0-4-1284 is injected 15 min following subcutaneous or oral administration and observations start 15 min later. Doses are initially given to 3 animals. When at least 2 out of the 3 animals show activity for at least one of the observations, the compound is considered active.

[1] = system: non-small cell lung cancer cell line H1299; experiment: Alamar Blue cell proliferation assay, H1299; type: cell-based
Method: (§1) For experiments in 384 wells plates the cells were seeded at a density of 5×10^3 cells/ml in Falcon 384-well culture plates (Life Technologies, Merelbeke, Belgium), black with clear bottom, in 45 μl culture medium. Cells were allowed to adhere to plastic for 24 hr. The tested compound was pre-diluted (1/50 in culture medium) and 5 μl pre-diluted compound was added to the wells. Following 4-day incubation, 10 μl of the Alamar Blue solution was added to each well and the cells were further incubated for 5 hrs (A2780) at 37° C. The fluorescence intensity was measured for each well with a Fluorescence plate reader (Fluorskan, Labsystems, 540 nm excitation and 590 nm emission)
(§2) The antiproliferative activity was calculated as percentage of remaining viable cells in treated versus control (untreated cells) conditions. Within an experiment, the result for each experimental condition is the mean of 3 replicate wells. When appropriate, the experiments were repeated to establish full concentration-response curves. When appropriate, IC50-values (concentration of the drug, needed to reduce cell growth to 50% of the control) were computed using probit analysis for graded data (Finney, D. J., Probit Analyses, 2nd Ed. Chapter 10, Graded Responses, Cambridge University Press, Cambridge 1962). Herein the effects of test compounds are expressed as pIC50 (the negative log value of the IC50-value (M)) (see Table 5A).
(§3) Compounds were also tested according to the above protocol but using other cell lines: colorectal cancer cell line HCT116, non-small cell lung cancer cell line H1299, human prostate cancer cell line DU145.

[2] = system: colorectal cancer cell line HCT116; experiment: Alamar Blue cell proliferation assay, HCT116; type: cell-based; settings: for IC50: Homo sapiens, HCT-116, HCT116 cells, read-out: HCT116 cell proliferation inhibition pIC50 (converted)
Method: as §1, §2, §3

p53 in A2780 cells = experiment: p53 ELISA (preservation of p53 in A2780 cells); type: cell-based, human; settings: 16 hours treatment; for minimal effective concentration: Homo sapiens, A2780, 16 h, read-out: p53-elisa LAD (lowest dose giving at least 140% of the value for p53 present in the control)
Method: The capacity of the present compounds to preserve p53 in A2780 cells was measured with the p53 enzyme linked immunosorbent assay. The p53 assay is a “sandwich” enzyme immunoassay employing two polyclonal antibodies. A polyclonal antibody, specific for the p53 protein, has been immobilized onto the surface of the plastic wells. Any p53 present in the sample to be assayed will bind to the capture antibody. The biotinylated detector polyclonal antibody also recognizes p53 protein, and will bind to any p53, which has been retained by the capture antibody. The detector antibody, in turn, is bond by horseradish peroxidase-conjugated streptavidin. The horseradish peroxidase catalyses the conversion of the chromogenic substrate o-phenylene diamine, the intensity of which is proportional to the amount of p53 protein bond to the plate. The colored reaction product is quantified using a spectrophotometer. Quantitation is achieved by the construction of a standard curve using known concentrations of purified recombinant HIS tagged p53 protein (see example C.1.).
A2780 cells (ATCC) were cultivated in RPMI 1640 supplemented with 10% fetal calf serum (FCS), 2 mM L-glutamine and gentamycin at 37° C. in a humidified incubator with 5% CO2.
A2780 cells were seeded at 20.000 cells per well in a 96 well plate, cultured for 24 hours and treated with compound for 16 hours at 37° C. in a humidified incubator. After incubation, the cells were washed once with phosphate-buffered saline and 30 μl, per well, low salt RIPA buffer (20 mM tris, pH7.0, 0.5 mM EDTA, 1% Nonidet P40, 0.5% DOC, 0.05% SDS, 1 mM PMSF, 1 μg/ml aprotinin and 0.5 μ/ml leupeptin) was added. Plates were placed on ice for 30 minutes to complete the lysis. p53 protein was detected in de lysates by using the sandwich ELISA, described below.
High binding polystyrene EIA/RIA 96 well plates (Costar 9018) were coated with the capture antibody pAb1801 (Abcam ab28-100) at a concentration of 1 μg/ml in coating buffer (0.1 M NaHCO3 pH8.2), 50 μl per well. The antibody was allowed to adhere overnight at 4° C. Coated plates were washed once with phosphate-buffered saline (PBS)/0.05% Tween 20 and 300 μl of blocking buffer (PBS, 1% bovine serum albumins (BSA)) was added, for an incubation period of 2 hours at room temperature. Dilutions of purified recombinant HIS tagged p53 protein, ranging from 3-200 ng/ml, were made in blocking buffer and used as standards.
Plates were washed twice with PBS/0.05% Tween 20 and blocking buffer or standards were added at 80 μl/well. To the standards, 20 μl of lysis buffer was added. The samples were added to the other wells at 20 μl lysate/well. After an overnight incubation at 4° C., plates were washed twice with PBS/0.05% Tween 20. Aliquots of 100 μl secondary polyclonal antibody p53(FL-393) (Tebubio, sc-6243) at a concentration of 1 μg/ml in blocking buffer were added to each well and allowed to adhere for 2 hours at room temperature. Plates were washed three times with PBS/0.05% Tween 20. Detection antibody anti-rabbit HRP (sc-2004, Tebubio) at 0.04 μg/ml in PBS/1% BSA was added and incubated for 1 hour at room temperature. Plates were washed three times with PBS/0.05% Tween 20 and 100 μl of substrate buffer was added (substrate buffer was prepared shortly before use by adding 1 tablet of 10 mg o-phenylene diamine (OPD) from Sigma and 125 μl 3% H2O2 to 25 ml OPD buffer: 35 mM citric acid, 66 mM Na2HPO4, pH5.6). After 5 to 10 minutes, colour reaction was stopped by adding 50 μl stop buffer (1 M H2SO4) per well. The absorbance at dual wavelengths of 490/655 nm was measured using a Biorad micro plate reader and the results were then analyzed.
For each experiment, controls (containing no drug) and a blank incubation (containing no cells or drugs) were run in parallel. The blank value was subtracted from all control and sample values. For each sample, the value of p53 (in absorbance units) was expressed as the percentage of the value for p53 present in the control. […]

[3] = system: A2780 ovarian cancer cells; experiment: Alamar Blue cell proliferation assay, A2780; type: cell-based, human; settings: 4-day incubation; for IC50: Homo sapiens, A2780, 96 h, read-out: A2780 cell proliferation inhibition pIC50 (converted)
Method: The human A2780 ovarian cancer cells were a kind gift from Dr. T. C. Hamilton (Fox Chase Cancer Centre, Pennsylvania, U.S.A.). The cells were cultured in RPMI 1640 medium supplemented with 2 mM L-Glutamine, 50 μg/ml gentamicin and 10% fetal calf serum.
Potassium Phosphate Buffer 0.1 M (PPB) was made as follows: 2.72 gram KH2PO4 and 13.86 gram K2HPO4 were dissolved in 500 ml milli-Q H2O, the pH was adjusted to pH 7.4 and the volume was brought to 1 liter with milli-Q H2O; the buffer was filter sterilised and stored at room temperature. Resazurin stock solution (PPB-A) was prepared fresh by dissolving 45 mg resazurin in 15 ml PBS. 30 mM potassium ferricyanide (PPB-B) was prepared by dissolving 0.987 gram potassium ferricyanide in 100 ml PPB. 30 mM potassium ferrocyanide (PPB-C) was prepared by dissolving 1.266 gram potassium ferrocyanide in 100 ml PPB.
Mixture of PPB-A, PPB-B and PPB-C was prepared by mixing equal volumes of the respective solutions. Resazurin work solution (herein termed “Alamar Blue” solution) was prepared by diluting said mixture 20×(vol/vol) in PPB and filter sterilising; the Alamar Blue solution could be kept at 4° C. for a maximum of 2 weeks.
as §1, §2

[4] = system: human prostate cancer cell line DU145; experiment: Alamar Blue cell proliferation assay, DU145; type: cell-based; settings: Homo sapiens, DU-145, DU145 cells; read-out: DU145 cell proliferation inhibition pIC50 (converted)
Method: as §1, §2, §3

Structure (SMILES): c1ccc2c(CCNc3ccc(Nc4ccncc4)cc3)c[nH]c2c1 [reference compound]
drug induced neurological side effects (Male NMRI mice): yes

Structure (SMILES): Cc1cccc2c(CCNc3ccc(Nc4ccncc4)cc3)c[nH]c12 [reference compound]
drug induced neurological side effects (Male NMRI mice): yes

Structure (SMILES): OC1CCc2c(Nc3ccc(NCCc4c[nH]c5ccccc45)cc3)ccnc21 (centres unmarked) [drawing 153, reference compound]
drug induced neurological side effects (Male NMRI mice): yes

Structure (SMILES): Cc1cc(Nc2ccncc2)ccc1NCCc1c[nH]c2ccccc12 [reference compound]
drug induced neurological side effects (Male NMRI mice): yes

Structure (SMILES): OC1CCc2c(Nc3ccc(NCCc4c[nH]c5ccccc45)cc3)ccnc21 (centres unmarked) [drawing 152, reference compound]
drug induced neurological side effects (Male NMRI mice): yes

H1299 cell proliferation inhibition pIC50 ([1]; H1299 cells): <5 | HCT116 cell proliferation inhibition pIC50 ([2]; HCT116 cells): 5.61 | A2780 cell proliferation inhibition pIC50 [3]: 6.90
Structure (SMILES): Cc1cc(Nc2ccnc3c2CCC3O)ccc1NCCc1c[nH]c2c(CCO)cccc12 (single isomer, unassigned) [Compound 13]
p53-elisa LAD (lowest dose giving at least 140% of the value for p53 present in the control) (p53 in A2780 cells): 1.00 µM

IC50 [4]: 7240 nM | IC50 ([1]; Homo sapiens, NCI-H1299, H1299 cells, read-out: H1299 cell proliferation inhibition pIC50 (converted)): 3980 nM | IC50 [2]: > 10000 nM | IC50 [3]: 372 nM
Structure (SMILES): C=Cc1ccc2c(CCNc3ccc(Nc4ccnc5c4CCC5O)cc3C)c[nH]c2c1 (centres unmarked) [Compound 14]
minimal effective concentration (p53 in A2780 cells): 1 µM

Structure (SMILES): COC1CCc2c(Nc3ccc(NCCc4c[nH]c5c(C(C)(C)O)cccc45)cc3)ccnc21 (centres unmarked) [Compound 8]
IC50 [2]: 87.1 nM | minimal effective concentration (p53 in A2780 cells): 0.1 µM | IC50 [3]: 87.1 nM

— US8541442B2, “Indole derivatives as anticancer agents” (Janssen Pharmaceutica N.V., priority 2009, dated 2013)
